How the values were obtained:
[1] = Ratio of IC50 for antiproliferative activity against human Bel-7402 cells assessed as inhibition of cell growth under normoxia condition to IC50 for antiproliferative activity against human Bel-7402 cells assessed as inhibition of cell growth under hypoxia condition; format: functional
[2] = Ratio of IC50 for antiproliferative activity against human MCF7 cells assessed as inhibition of cell growth under normoxia condition to IC50 for antiproliferative activity against human MCF7 cells assessed as inhibition of cell growth under hypoxia condition; format: functional
[3] = Ratio of IC50 for antiproliferative activity against human Eca-109 cells assessed as inhibition of cell growth under normoxia condition to IC50 for antiproliferative activity against human Eca-109 cells assessed as inhibition of cell growth under hypoxia condition; format: functional
[4] = system: HCT-116; test: Antiproliferative activity against human HCT-116 cells assessed as inhibition of cell growth under hypoxic condition by MTT assay; format: functional, cell-based
[5] = system: NCI-H460; test: Antiproliferative activity against human NCI-H460 cells assessed as inhibition of cell growth under hypoxic condition by MTT assay; format: functional, cell-based
[6] = system: MCF7; test: Antiproliferative activity against human MCF7 cells assessed as inhibition of cell growth under hypoxic condition by MTT assay; format: functional, cell-based
[7] = system: MCF7; test: Antiproliferative activity against human MCF7 cells assessed as inhibition of cell growth measured after 72 hrs by fluorescence based assay; format: functional; settings: MCF7, 72 h
[8] = system: K562; test: Antiproliferative activity against human K562 cells assessed as inhibition of cell growth measured after 72 hrs by fluorescence based assay; format: functional; settings: K562, 72 h
[9] = Ratio of IC50 for antiproliferative activity against human HL-60 cells assessed as inhibition of cell growth under normoxia condition to IC50 for antiproliferative activity against human HL-60 cells assessed as inhibition of cell growth under hypoxia condition; format: functional
[10] = Ratio of IC50 for antiproliferative activity against human PC-3 cells assessed as inhibition of cell growth under normoxia condition to IC50 for antiproliferative activity against human PC-3 cells assessed as inhibition of cell growth under hypoxia condition; format: functional

Structure (SMILES)	Ratio IC50 [1]	Ratio IC50 [2]	Ratio IC50 [3]	IC50 [4] [µM]	IC50 [5] [µM]	IC50 [6] [µM]	Ratio IC50 [9]	Ratio IC50 [10]	other results
O=[N+]([O-])c1ccc2c(c1)[n+]([O-])nc(Nc1ccccc1)[n+]2[O-]	1.44	1.61	1.47						
NCCCCCCCNc1n[n+]([O-])c2ccccc2[n+]1[O-]				11.7	11.7	11.7			
NCCNc1n[n+]([O-])c2ccccc2[n+]1[O-]				11.7	11.7	11.7			
O=C(NCCCCCCCCNc1n[n+]([O-])c2ccccc2[n+]1[O-])C(F)(F)F				11.7	11.7	11.7			
NCCCCCNc1n[n+]([O-])c2ccccc2[n+]1[O-]				11.7	11.7	11.7			
O=C(NCCCCCCNc1n[n+]([O-])c2ccccc2[n+]1[O-])C(F)(F)F				11.7	11.7	11.7			
CNc1nc(=O)n(-c2ccccc2)nc1-c1ccccc1O									IC50 [7]: 3.5 µM; IC50 [8]: 3.5 µM
O=c1nc(NC2CCCCC2)c(-c2ccccc2O)nn1-c1ccccc1									IC50 [7]: 3.5 µM; IC50 [8]: 3.5 µM
[O-][n+]1nc(NCCCNc2n[n+]([O-])c3ccccc3[n+]2[O-])nc2ccccc21				11.7	11.7	11.7			
COc1ccc2c(c1)[n+]([O-])nc(NCC1CCCCC1)[n+]2[O-]	2	2.4	1.3				2.4	1	
CCNc1n[n+]([O-])c2cc(C)ccc2[n+]1[O-]	1.74	2.7	1.4				1	2.1	
CCCCCCNc1n[n+]([O-])c2ccccc2[n+]1[O-]		1.3	1.7				2.8	1.19	
NCCCCCCCCNc1n[n+]([O-])c2ccccc2[n+]1[O-]				11.7	11.7	11.7			
O=c1nc(Nc2ccccc2)c(-c2ccccc2O)nn1-c1ccccc1									IC50 [7]: 3.5 µM; IC50 [8]: 3.5 µM
NCCCNc1n[n+]([O-])c2ccccc2[n+]1[O-]				11.7	11.7	11.7			
Cc1ccc2c(c1)[n+]([O-])nc(NCc1ccccc1)[n+]2[O-]	2.54	3.79	8.77				1.21	2.4	

Structure (SMILES)	Ratio IC50 [1]	Ratio IC50 [2]	Ratio IC50 [3]	IC50 [4] [µM]	IC50 [5] [µM]	IC50 [6] [µM]	Ratio IC50 [9]	Ratio IC50 [10]	other results
O=c1nc(NCCCCCCNc2nc(=O)n(-c3ccccc3)nc2-c2c(O)ccc3ccccc23)c(-c2c(O)ccc3ccccc23)nn1-c1ccccc1									IC50 [7]: 3.5 µM; IC50 [8]: 3.5 µM
COc1ccc2c(c1)[n+]([O-])nc(NC1CCCCC1)[n+]2[O-]	1.6	2.8	2				2.2		
CCCCCCNc1n[n+]([O-])c2cc(C)ccc2[n+]1[O-]		1.3	4.7				2.9	1.3	
NNc1nc(=O)n(-c2ccccc2)nc1-c1ccccc1O									IC50 [7]: 3.5 µM; IC50 [8]: 3.5 µM
O=c1nc(NCCCCCN(CCCNc2nc(=O)n(-c3ccccc3)nc2-c2ccccc2O)c2nc(=O)n(-c3ccccc3)nc2-c2ccccc2O)c(-c2ccccc2O)nn1-c1ccccc1									IC50 [7]: 3.5 µM; IC50 [8]: 3.5 µM
CCCCCCNc1n[n+]([O-])c2cc(Cl)ccc2[n+]1[O-]	1.6	2.1	2.6				4	1.4	
NCCNc1nc(=O)n(-c2ccccc2)nc1-c1ccccc1O									IC50 [7]: 3.5 µM; IC50 [8]: 3.5 µM
O=[N+]([O-])c1ccc2c(c1)[n+]([O-])nc(NCc1ccccc1)[n+]2[O-]	1.17	1.2	1.45				1.09	1.89	
NCCCCCCNc1n[n+]([O-])c2ccccc2[n+]1[O-]				11.7	11.7	11.7			
O=c1nc(NNc2ccccc2)c(-c2ccccc2O)nn1-c1ccccc1									IC50 [7]: 3.5 µM; IC50 [8]: 3.5 µM
O=C(NCCCCCCCNc1n[n+]([O-])c2ccccc2[n+]1[O-])C(F)(F)F				11.7	11.7	11.7			
Cc1ccc2c(c1)[n+]([O-])nc(NC1CCCCC1)[n+]2[O-]	1.1	2	2.5				7.9	1.2	
CCCCCCNc1n[n+]([O-])c2cc([N+](=O)[O-])ccc2[n+]1[O-]	1.5		1.5					1.6	
NC(=O)NNc1nc(=O)n(-c2ccccc2)nc1-c1ccccc1O									IC50 [7]: 3.5 µM; IC50 [8]: 3.5 µM
O=C(NCCNc1n[n+]([O-])c2ccccc2[n+]1[O-])C(F)(F)F				11.7	11.7	11.7			
Nc1n[n+]([O-])c2ccccc2[n+]1[O-] [TIRAPAZAMINE]	1.8	1.7	6.6				1.1	3.8	

Reference: ChEMBL document CHEMBL5260813, “An overview on the recent developments of 1,2,4-triazine derivatives as anticancer compounds” (Eur J Med Chem, 2017)
